Assay results published in patent EP2526935A1, “Hydrazidomycins” (Oncotest GmbH, priority 2011, dated 2012).

Columns and labels:
Format in all cases: cell-based
[1] = tested on: panel of 12 human tumor cell lines; assay: modified propidium iodide cytotoxicity assay, panel of 12 human tumor cell lines; conditions: for IC50: geometric mean over panel of 12 human tumor cell lines, read-out: Cytotoxic potency (geometric mean IC50)
From the text: (§1) Antiproliferative and cytotoxic assays. A modified propidium iodide assay was used to determine the cytotoxic activity of compounds hydrazidomycin A, B, and C against 12 to 42 cell lines derived from solid human tumors. The test procedure has been as is known in the art. Cell lines tested were derived from patient tumors engrafted as a subcutaneously growing tumor in NMRI nu/nu mice, or obtained from the American Type Culture Collection, Rockville, MD, USA, National Cancer Institute, Bethesda, MD, USA, or Deutsche Sammlung von Mikroorganismen und Zellkulturen, Braunschweig. The IC50 was determined by four parameter non-linear curve fit after plotting compound concentration versus fluorescence intensity, and is given as the concentration of test compound that gives a response (inhibition of cell growth) half way between the top and bottom plateau of the sigmoidal concentration-response curve (i.e. the inflection point of the curve).

[2] = tested on: Enterococcus faecalis; assay: antimicrobial activity test; conditions: at a concentration of 1.0 mg/mL
[3] = tested on: Pseudomonas aeruginosa; assay: antimicrobial activity test; conditions: at a concentration of 1.0 mg/mL
[4] = tested on: Escherichia coli; assay: antimicrobial activity test; conditions: at a concentration of 1.0 mg/mL
[5] = tested on: Bacillus subtilis; assay: antimicrobial activity test; conditions: at a concentration of 1.0 mg/mL
[6] = tested on: Mycobacerium vaccae; assay: antimicrobial activity test; conditions: at a concentration of 1.0 mg/mL
[7] = tested on: Staphylococcus aureus; assay: antimicrobial activity test; conditions: at a concentration of 1.0 mg/mL
[8] = tested on: DU-145; assay: modified propidium iodide cytotoxicity assay; conditions: Homo sapiens, Prostate
From the text: as §1

[9] = tested on: LXFA 526L; assay: modified propidium iodide cytotoxicity assay; conditions: Homo sapiens, Lung, non-small cell
From the text: as §1

[10] = tested on: BXF 1352L; assay: modified propidium iodide cytotoxicity assay; conditions: Homo sapiens, Bladder
From the text: as §1

[11] = tested on: PAXF 546L; assay: modified propidium iodide cytotoxicity assay; conditions: Homo sapiens, Pancreas
From the text: as §1

[12] = tested on: T-24; assay: modified propidium iodide cytotoxicity assay; conditions: Homo sapiens, Bladder
From the text: as §1

[13] = tested on: LXFA 289L; assay: modified propidium iodide cytotoxicity assay; conditions: Homo sapiens, Lung, non-small cell
From the text: as §1

[14] = tested on: MKN45; assay: modified propidium iodide cytotoxicity assay; conditions: Homo sapiens, MKN-45, Stomach
From the text: as §1

[15] = tested on: LNCaP; assay: modified propidium iodide cytotoxicity assay; conditions: Homo sapiens, Prostate
From the text: as §1

[16] = tested on: GXF 251L; assay: modified propidium iodide cytotoxicity assay; conditions: Homo sapiens, Stomach
From the text: as §1

[17] = tested on: RXF 1781L; assay: modified propidium iodide cytotoxicity assay; conditions: Homo sapiens, Kidney
From the text: as §1

[18] = tested on: LXFA 629L; assay: modified propidium iodide cytotoxicity assay; conditions: Homo sapiens, Lung, non-small cell
From the text: as §1

[19] = tested on: LXFL1121L; assay: modified propidium iodide cytotoxicity assay; conditions: Homo sapiens, LXFL 1121L, Lung, non-small cell
From the text: as §1

[20] = tested on: CAL-27; assay: modified propidium iodide cytotoxicity assay; conditions: Homo sapiens, Head and neck
From the text: as §1

[21] = tested on: NCI-H460; assay: modified propidium iodide cytotoxicity assay; conditions: Homo sapiens, Lung, non-small cell
From the text: as §1

[22] = tested on: PAXF 1657L; assay: modified propidium iodide cytotoxicity assay; conditions: Homo sapiens, Pancreas
From the text: as §1

[23] = tested on: UXF 1138L; assay: modified propidium iodide cytotoxicity assay; conditions: Homo sapiens, Uterus
From the text: as §1

[24] = tested on: PXF 698L; assay: modified propidium iodide cytotoxicity assay; conditions: Homo sapiens, Mesothelioma
From the text: as §1

[25] = tested on: MCF-7; assay: modified propidium iodide cytotoxicity assay; conditions: Homo sapiens, MCF7, Breast
From the text: as §1

[26] = tested on: PXF 1118L; assay: modified propidium iodide cytotoxicity assay; conditions: Homo sapiens, Mesothelioma
From the text: as §1

[27] = tested on: MAXF 401NL; assay: modified propidium iodide cytotoxicity assay; conditions: Homo sapiens, Breast
From the text: as §1

[28] = tested on: MEXF 1341L; assay: modified propidium iodide cytotoxicity assay; conditions: Homo sapiens, Melanoma
From the text: as §1

[29] = tested on: PANC-1; assay: modified propidium iodide cytotoxicity assay; conditions: Homo sapiens, Pancreas
From the text: as §1

[30] = tested on: HT-29; assay: modified propidium iodide cytotoxicity assay; conditions: Homo sapiens, Colon
From the text: as §1

[31] = tested on: MEXF 276L; assay: modified propidium iodide cytotoxicity assay; conditions: Homo sapiens, MEXF276L, Melanoma
From the text: as §1

[32] = tested on: BXF 1218L; assay: modified propidium iodide cytotoxicity assay; conditions: Homo sapiens, Bladder
From the text: as §1

[33] = tested on: LIXF 575L; assay: modified propidium iodide cytotoxicity assay; conditions: Homo sapiens, Liver
From the text: as §1

[34] = tested on: NIH:OVCAR-3; assay: modified propidium iodide cytotoxicity assay; conditions: Homo sapiens, Ovary
From the text: as §1

[35] = tested on: MEXF 462NL; assay: modified propidium iodide cytotoxicity assay; conditions: Homo sapiens, Melanoma
From the text: as §1

[36] = tested on: RKO; assay: modified propidium iodide cytotoxicity assay; conditions: Homo sapiens, Colon
From the text: as §1

[37] = tested on: DIFI; assay: modified propidium iodide cytotoxicity assay; conditions: Homo sapiens, Colon
From the text: as §1

[38] = tested on: OVXF 899L; assay: modified propidium iodide cytotoxicity assay; conditions: Homo sapiens, Ovary
From the text: as §1

[39] = tested on: PXF 1752L; assay: modified propidium iodide cytotoxicity assay; conditions: Homo sapiens, Mesothelioma
From the text: as §1

[40] = tested on: RXF 486L; assay: modified propidium iodide cytotoxicity assay; conditions: Homo sapiens, Kidney
From the text: as §1

[41] = tested on: 22Rv1; assay: modified propidium iodide cytotoxicity assay; conditions: Homo sapiens, Prostate
From the text: as §1

[42] = tested on: CXF 269L; assay: modified propidium iodide cytotoxicity assay; conditions: Homo sapiens, Colon
From the text: as §1

[43] = tested on: HCT-116; assay: modified propidium iodide cytotoxicity assay; conditions: Homo sapiens, Colon
From the text: as §1

[44] = tested on: MDA-MB-231; assay: modified propidium iodide cytotoxicity assay; conditions: Homo sapiens, Breast
From the text: as §1

[45] = tested on: RXF 393NL; assay: modified propidium iodide cytotoxicity assay; conditions: Homo sapiens, Kidney
From the text: as §1

[46] = tested on: PC-3M; assay: modified propidium iodide cytotoxicity assay; conditions: Homo sapiens, Prostate
From the text: as §1

[47] = tested on: LXFL 529L; assay: modified propidium iodide cytotoxicity assay; conditions: Homo sapiens, Lung, non-small cell
From the text: as §1

[48] = tested on: TE671; assay: modified propidium iodide cytotoxicity assay; conditions: Homo sapiens, TE-671, Sarcoma
From the text: as §1

[49] = tested on: Saos-2; assay: modified propidium iodide cytotoxicity assay; conditions: Homo sapiens, Sarcoma
From the text: as §1

[50] = tested on: panel of 42 human tumor cell lines; assay: modified propidium iodide cytotoxicity assay, panel of 42 human tumor cell lines; conditions: for IC50: mean over panel of 42 tumor cell lines, 15 histotypes; for IC50 values in sensitive cell lines, fold lower than the mean IC50 of all cell lines tested: on average, sensitive cell lines versus all cell lines
From the text: as §1

Compound: CCCCC/C=C\C/C=C\CCCC/C=C\N(NC(=O)COC)C(=O)CCCCCCCCC [Hydrazidomycin C, hydrazidomycin C]
- IC50 [1]: > 10000 nM
- inhibition of tumor cell growth ([1]; up to a concentration of 10 µM): did not show inhibition of tumor cell growth
- antimicrobial activity [2]: no antimicrobial activity
- antimicrobial activity [3]: no antimicrobial activity
- antimicrobial activity [4]: no antimicrobial activity
- antimicrobial activity [5]: no antimicrobial activity
- antimicrobial activity [6]: no antimicrobial activity
- antimicrobial activity [7]: no antimicrobial activity

Compound: CCCCCCC/C=C\CCCCC/C=C\N(NC(=O)COC)C(=O)CCCCCCCCC [Hydrazidomycin B, hydrazidomycin B]
- IC50 [1]: 6040 nM
- antimicrobial activity [2]: no antimicrobial activity
- antimicrobial activity [3]: no antimicrobial activity
- IC50 [8]: 7220 nM
- IC50 [9]: 7070 nM
- IC50 [10]: 15100 nM
- IC50 [11]: 10800 nM
- IC50 [12]: 9190 nM
- IC50 [13]: 12600 nM
- IC50 [14]: 11600 nM
- IC50 [15]: 14100 nM
- IC50 [16]: 1540 nM
- IC50 [17]: 10200 nM
- IC50 [18]: 1410 nM
- IC50 [19]: 17400 nM
- IC50 [20]: 12700 nM
- IC50 [21]: 17200 nM
- IC50 [22]: 20400 nM
- IC50 [23]: 18200 nM
- IC50 [24]: 14300 nM
- IC50 [25]: 11000 nM
- IC50 [26]: 30000 nM
- IC50 [27]: 876 nM
- IC50 [28]: 14900 nM
- IC50 [29]: 10000 nM
- IC50 [30]: 6540 nM
- IC50 [31]: 18300 nM
- IC50 [32]: 19300 nM
- IC50 [33]: 7390 nM
- IC50 [34]: 18500 nM
- IC50 [35]: 20400 nM
- IC50 [36]: 13800 nM
- IC50 [37]: 10200 nM
- IC50 [38]: 19100 nM
- IC50 [39]: 12700 nM
- IC50 [40]: 21200 nM
- IC50 [41]: 15600 nM
- IC50 [42]: 5940 nM
- IC50 [43]: 19400 nM
- IC50 [44]: 5530 nM
- IC50 [45]: 11000 nM
- IC50 [46]: 1730 nM
- IC50 [47]: 17300 nM
- IC50 [48]: 18200 nM
- IC50 [49]: 18000 nM
- IC50 ([50]; Homo sapiens): 10700 nM
- IC50 values in sensitive cell lines, fold lower than the mean IC50 of all cell lines tested [50]: ~8 fold
- antimicrobial activity [4]: no antimicrobial activity
- antimicrobial activity [5]: no antimicrobial activity
- antimicrobial activity [6]: no antimicrobial activity
- antimicrobial activity [7]: no antimicrobial activity

Compound: CCCCCCCCCCCC/C=C\N(NC(=O)COC)C(=O)CCCCCCCCC [Hydrazidomycin A, hydrazidomycin A]
- IC50 [1]: 370 nM
- antimicrobial activity [2]: no antimicrobial activity
- antimicrobial activity [3]: no antimicrobial activity
- IC50 [8]: 539 nM
- IC50 [9]: 1650 nM
- IC50 [10]: 2300 nM
- IC50 [11]: 660 nM
- IC50 [13]: 1100 nM
- IC50 [14]: 676 nM
- IC50 [15]: 957 nM
- IC50 [16]: 144 nM
- IC50 [17]: 982 nM
- IC50 [18]: 247 nM
- IC50 [19]: 2310 nM
- IC50 [20]: 716 nM
- IC50 [21]: 2310 nM
- IC50 [22]: 1910 nM
- IC50 [23]: 893 nM
- IC50 [24]: 982 nM
- IC50 [25]: 782 nM
- IC50 [26]: 2400 nM
- IC50 [27]: 471 nM
- IC50 [28]: 936 nM
- IC50 [29]: 933 nM
- IC50 [30]: 464 nM
- IC50 [31]: 1590 nM
- IC50 [32]: 2430 nM
- IC50 [33]: 349 nM
- IC50 [34]: 1100 nM
- IC50 [35]: 765 nM
- IC50 [36]: 598 nM
- IC50 [37]: 782 nM
- IC50 [38]: 1340 nM
- IC50 [39]: 1190 nM
- IC50 [40]: 1620 nM
- IC50 [41]: 882 nM
- IC50 [42]: 222 nM
- IC50 [43]: 758 nM
- IC50 [44]: 286 nM
- IC50 [45]: 1110 nM
- IC50 [46]: 105 nM
- IC50 [47]: 2120 nM
- IC50 [48]: 898 nM
- IC50 [49]: 1820 nM
- IC50 ([50]; Homo sapiens): 860 nM
- IC50 ([50]; listed as (II)): 857 nM
- IC50 values in sensitive cell lines, fold lower than the mean IC50 of all cell lines tested [50]: about 4 fold
- antimicrobial activity [4]: no antimicrobial activity
- antimicrobial activity [5]: no antimicrobial activity
- antimicrobial activity [6]: no antimicrobial activity
- antimicrobial activity [7]: no antimicrobial activity
